# Data taken from patent EP0123157B1, “Medicaments and/or foodstuff concentrates with an anti-bacterial activity” (EGIS GYOGYSZERGYAR, priority 1983, dated 1984).
# Where two headings read alike, the source gives them in different places.
# What was measured:
# Experiment in all cases: Minimum inhibitory concentration (MIC) in vitro in broth containing phenol red and glucose
# Type in all cases: cell-based
# [1] = tested on: Bordatella bronchiseptica; conditions: read-out: Werte der Mindesthemmkonzentration [MIC-Werte]
# Description: (§1) Die Mindesthemmkonzentration (MIC-Werte) der Kombination der 3 obigen Wirkstoffe und der einzelnen obigen Wirkstoffe wurden in vitro gegen die Bakterienstämme Escherichia coli 494, Bordatella bronchiseptica, Staphylococcus aureus und Listeria monocytogenes in einer Phenolrot und Glucose enthaltenden Brühe [Hersteller: Firma Difca] bestimmt.
# [2] = tested on: Gegen Chloramphenicol resistenter Stamm Escherichia coli 494; conditions: single substance; inhibits bacterial growth for 24 hours; chloramphenicol-resistant Escherichia coli 494; read-out: Werte der Mindesthemmkonzentration [MIC-Werte]
# Description: as §1
# [3] = tested on: Listeria monocytogenes; conditions: read-out: Werte der Mindesthemmkonzentration [MIC-Werte]
# Description: as §1
# [4] = tested on: Staphylococcus aureus; conditions: read-out: Werte der Mindesthemmkonzentration [MIC-Werte]
# Description: as §1
# [5] = single substance, inhibits bacterial growth for 24 hours, Bordatella bronchiseptica
# [6] = single substance, inhibits bacterial growth for 24 hours
Compound,"MIC [1, 5] [mg/L]",MIC [2] [mg/L],"MIC [3, 6] [mg/L]","MIC [4, 6] [mg/L]",MIC ([1]; 24 h) [mg/L],MIC ([3]; 24 h) [mg/L],MIC ([4]; 24 h) [mg/L]
"Cc1ccc2c(Cl)cc(Cl)c(O)c2n1 [Chlorchinaldol, 2-(Methyl)-5,7-di-(chlor)-8-(hydroxy)-chinolin]",5,200,5,5,–,–,–
"COc1cc(Cc2cnc(N)nc2N)cc(OC)c1OC [Trimethoprim, 2,4-Diamino-5-[3', 4', 5'-tri-(methoxy)-benzyl]-pyrimidin]",50,25,50,100,–,–,–
"CN(C)CCCN1c2ccccc2Sc2ccc(Cl)cc21 [Chlorpromazin, 2-Chlor-10-[3-(dimethylamino)-propyl]-phenothiazin]",–,50,–,–,200,25,25
